The record followed here is ChEMBL document CHEMBL3856202, “Synthesis and screening of triazolopyrimidine scaffold as multi-functional agents for Alzheimer's disease therapies” (Eur J Med Chem, 2016).

Active and inactive are the calls of the source. The calls are words filed in the database; no cut-off is given here.

The target of one series is Acetylcholinesterase (Electrophorus electricus, UniProt O42275).
The target in the next series is Cholinesterase (Equus caballus, UniProt P81908).
For series [1], the target named is Acetylcholinesterase (Electrophorus electricus) (UniProt O42275). The conditions noted are these: at 100 µM.
Description: Inhibition of electric eel AChE-mediated amyloid beta (1 to 42) (unknown origin) co-aggregation at 100 uM measured after 48 hrs by ThT-assay
Series [2] addresses Amyloid-beta precursor protein (Homo sapiens) (UniProt P05067). The conditions noted are these: at 25 µM.
Description: Inhibition of amyloid beta (1 to 42) (unknown origin) self-aggregation at 25 uM measured after 48 hrs by ThT-assay
Series [3] deals with SH-SY5Y. The series can be described thus: Neuroprotective activity in human SH-SY5Y cells assessed as reduction of amyloid beta (1 to 42)-induced neurotoxicity measured as morphological changes preincubated 30 mins followed by amyloid beta (1 to 42) peptide addition for 24 hrs by microscopy. It is filed as functional, cell-based.
Series [4] can be described thus: Neuroprotective activity in human SH-SY5Y cells assessed as reduction of amyloid beta (1 to 42)-induced neurotoxicity measured as cell viability at 5 to 25 uM preincubated 30 mins followed by amyloid beta (1 to 42) peptide addition for 24 hrs by MTT assay relative to control. It is filed as functional.
Series [5] deals with Acetylcholinesterase (Electrophorus electricus) (UniProt O42275). The series can be described thus: Potency index, ratio of IC50 for rivastigmine to IC50 for test compound against electric eel AChE.
A short description of series [6]: Cytotoxicity against human SH-SY5Y cells assessed as cell viability at 1 to 50 uM measured after 24 hrs by MTT assay. It is filed as toxicity, cell-based.
Series [7] concerns SH-SY5Y. The experiment in a line: Neuroprotective activity in human SH-SY5Y cells assessed as reduction of amyloid beta (1 to 42)-induced neurotoxicity measured as cell viability preincubated 30 mins followed by amyloid beta (1 to 42) peptide addition for 24 hrs by MTT assay. It is filed as functional, cell-based.
Series [8] has as its target Amyloid-beta precursor protein (Homo sapiens) (UniProt P05067). The experiment in a line: Inhibition of amyloid beta (1 to 42) (unknown origin) aggregation assessed at 25 uM after 24 to 48 hrs by transmission electron microscopic analysis.
The target in series [9] is Cholinesterase (Equus caballus) (UniProt P81908). The experiment in a line: Potency index, ratio of IC50 donepezil to IC50 for test compound against equine serum BuChE.
Series [10] relates to SH-SY5Y. The series can be described thus: Neuroprotective activity in human SH-SY5Y cells assessed as reduction of H2O2-induced neurotoxicity measured as increase in cell viability at 1 to 20 uM incubated for 24 hrs with H2O2-challenge by MTT assay. It is filed as functional, cell-based.
Series [11] concerns SH-SY5Y. The experiment in a line: Neuroprotective activity in human SH-SY5Y cells assessed as reduction of H2O2-induced neurotoxicity measured as morphological changes at 10 uM incubated for 24 hrs with H2O2-challenge by microscopy. It is filed as functional, cell-based.
For series [12], the target named is Acetylcholinesterase (Electrophorus electricus) (UniProt O42275). The series can be described thus: Potency index, ratio of IC50 for galantamine to IC50 for test compound against electric eel AChE.
Series [13] has the same target. As to conditions: at 12 to 42 nM.
Series [14] shares this target. The experiment in a line: Potency index, ratio of IC50 for tacrine to IC50 for test compound against electric eel AChE.

Acetylcholinesterase (Electrophorus electricus), sequence (O42275 24-633 limits assumed): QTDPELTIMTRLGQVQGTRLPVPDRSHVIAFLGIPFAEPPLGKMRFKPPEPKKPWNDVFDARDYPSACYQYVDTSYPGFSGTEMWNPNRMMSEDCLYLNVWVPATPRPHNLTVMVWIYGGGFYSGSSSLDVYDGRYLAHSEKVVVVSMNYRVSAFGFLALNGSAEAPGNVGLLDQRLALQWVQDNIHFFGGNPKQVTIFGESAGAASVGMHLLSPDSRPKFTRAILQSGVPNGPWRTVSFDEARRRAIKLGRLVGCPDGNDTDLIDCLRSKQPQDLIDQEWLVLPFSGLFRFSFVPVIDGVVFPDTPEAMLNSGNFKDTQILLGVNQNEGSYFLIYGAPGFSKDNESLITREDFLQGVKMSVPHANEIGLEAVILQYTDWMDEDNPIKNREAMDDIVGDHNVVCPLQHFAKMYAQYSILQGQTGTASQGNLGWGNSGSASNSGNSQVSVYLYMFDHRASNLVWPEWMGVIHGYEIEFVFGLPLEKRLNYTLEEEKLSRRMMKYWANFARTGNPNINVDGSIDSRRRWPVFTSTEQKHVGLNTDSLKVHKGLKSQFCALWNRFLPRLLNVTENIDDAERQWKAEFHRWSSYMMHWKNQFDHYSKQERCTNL
Amyloid-beta precursor protein (Homo sapiens), sequence (P05067 whole entry): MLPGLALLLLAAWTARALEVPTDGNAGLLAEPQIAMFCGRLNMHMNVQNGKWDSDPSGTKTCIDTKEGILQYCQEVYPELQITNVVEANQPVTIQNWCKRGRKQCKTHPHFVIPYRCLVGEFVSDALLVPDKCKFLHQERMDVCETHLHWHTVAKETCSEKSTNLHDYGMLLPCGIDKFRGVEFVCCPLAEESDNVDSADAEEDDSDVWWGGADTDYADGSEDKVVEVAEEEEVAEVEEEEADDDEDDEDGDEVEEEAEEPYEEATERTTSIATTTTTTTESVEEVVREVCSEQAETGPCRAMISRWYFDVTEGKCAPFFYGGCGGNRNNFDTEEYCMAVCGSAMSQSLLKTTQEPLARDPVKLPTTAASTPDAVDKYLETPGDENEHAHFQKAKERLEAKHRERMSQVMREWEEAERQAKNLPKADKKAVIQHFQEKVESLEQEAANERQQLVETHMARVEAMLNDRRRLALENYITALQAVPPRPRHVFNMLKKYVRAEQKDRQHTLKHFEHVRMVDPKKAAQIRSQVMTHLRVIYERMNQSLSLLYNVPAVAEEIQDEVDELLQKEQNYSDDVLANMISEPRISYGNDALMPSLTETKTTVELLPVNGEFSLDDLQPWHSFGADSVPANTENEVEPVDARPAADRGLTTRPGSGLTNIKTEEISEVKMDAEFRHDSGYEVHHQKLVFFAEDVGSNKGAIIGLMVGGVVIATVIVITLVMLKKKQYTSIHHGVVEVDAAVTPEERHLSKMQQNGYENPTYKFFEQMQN
Cholinesterase, sequence (P81908 whole entry): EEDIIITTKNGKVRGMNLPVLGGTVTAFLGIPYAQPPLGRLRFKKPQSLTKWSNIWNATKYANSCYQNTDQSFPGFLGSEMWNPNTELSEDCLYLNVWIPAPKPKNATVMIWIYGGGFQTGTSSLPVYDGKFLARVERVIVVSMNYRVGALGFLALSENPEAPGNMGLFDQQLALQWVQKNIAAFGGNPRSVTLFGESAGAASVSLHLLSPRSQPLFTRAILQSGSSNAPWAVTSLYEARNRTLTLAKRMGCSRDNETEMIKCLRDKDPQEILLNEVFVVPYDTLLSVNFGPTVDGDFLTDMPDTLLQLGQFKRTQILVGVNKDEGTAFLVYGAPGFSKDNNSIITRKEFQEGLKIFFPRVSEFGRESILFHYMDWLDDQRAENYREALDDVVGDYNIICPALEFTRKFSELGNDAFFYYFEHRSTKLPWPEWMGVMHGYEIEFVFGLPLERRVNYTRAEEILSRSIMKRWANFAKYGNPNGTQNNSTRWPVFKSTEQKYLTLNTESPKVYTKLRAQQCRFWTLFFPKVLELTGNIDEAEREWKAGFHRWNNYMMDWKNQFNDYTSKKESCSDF
Acetylcholinesterase, sequence (O42275 whole entry): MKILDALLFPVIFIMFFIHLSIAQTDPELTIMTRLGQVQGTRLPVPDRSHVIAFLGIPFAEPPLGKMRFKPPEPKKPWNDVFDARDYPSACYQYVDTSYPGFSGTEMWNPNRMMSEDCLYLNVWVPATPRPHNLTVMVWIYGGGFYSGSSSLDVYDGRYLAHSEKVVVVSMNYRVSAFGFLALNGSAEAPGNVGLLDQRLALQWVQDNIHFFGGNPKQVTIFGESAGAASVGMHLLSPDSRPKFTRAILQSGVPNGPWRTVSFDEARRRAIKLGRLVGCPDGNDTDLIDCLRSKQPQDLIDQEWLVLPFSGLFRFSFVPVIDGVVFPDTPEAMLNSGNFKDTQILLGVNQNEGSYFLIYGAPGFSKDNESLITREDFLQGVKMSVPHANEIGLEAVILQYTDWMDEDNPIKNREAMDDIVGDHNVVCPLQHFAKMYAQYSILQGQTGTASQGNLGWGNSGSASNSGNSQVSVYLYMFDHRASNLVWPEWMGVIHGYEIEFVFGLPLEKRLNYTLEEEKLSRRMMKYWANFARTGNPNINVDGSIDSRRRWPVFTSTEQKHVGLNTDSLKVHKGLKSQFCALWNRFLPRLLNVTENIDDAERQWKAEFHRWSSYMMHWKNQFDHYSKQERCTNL
Cholinesterase (Equus caballus), sequence (P81908 whole entry): as the sequence (P81908 whole entry) above

In the case of `CCOC(=O)c1cnc2cc(C(F)(F)F)ccc2c1N1CCN(c2ncccc2C#N)CC1`, the IC50 on Acetylcholinesterase worked out at 880 nM; on Cholinesterase, 980 nM. The values for the inhibition in series [1] and in series [2] were 47.8% and 44.2%, respectively.

On to `CCOC(=O)c1cnc2c(F)cccc2c1N1CCN(c2ncccc2C#N)CC1`, for which the results for the IC50 against Acetylcholinesterase and on Cholinesterase were 730 nM and 890 nM, respectively. In addition, the figures for the inhibition in series [1] and in series [2] were 50.3% and 47.4%, respectively.

As to `CCOC(=O)c1cnc2c(F)cccc2c1N1CCN(c2cc(C)nc3ncnn23)CC1`, the result in the series with SH-SY5Y [3], in the series with SH-SY5Y [10] and in the series on SH-SY5Y [11] was Active. Further, the Activity in [4] was 79 - 83%; in series [6] it was “Non-Toxic”; in the series on SH-SY5Y [7] it was “Dose-dependent effect”. In addition, the IC50 at Acetylcholinesterase is 97 nM; against Cholinesterase, 180 nM. Also, the values for the Ratio IC50 in series [5], in [9] and in series [12] were 46, 5 and 32, respectively. Besides, the inhibition result in series [8] is “Active”. Further, the values for the inhibition in series [1] and in series [2] were 70.3% and 64.2%, respectively.

Regarding `Cc1cc(N2CCN(c3ncccc3C#N)CC2)n2ncnc2n1`, the IC50 against Acetylcholinesterase is 1390 nM; against Cholinesterase, 780 nM. Also, the inhibition was 49.4% in [1] and 46.8% in [2].

Regarding `CCOC(=O)c1cnc2ccc(OC)cc2c1N1CCN(c2cc(C)nc3ncnn23)CC1`, the result in the series on SH-SY5Y [3], with SH-SY5Y [10] and with SH-SY5Y [11] was Active. For the same compound, the Activity in series [4] is 79 - 83%; in series [6], “Non-Toxic”; in the series with SH-SY5Y [7], “Dose-dependent effect”. The IC50 against Acetylcholinesterase was found to be 760 nM; at Cholinesterase it was 2010 nM. In series [8], the inhibition entry was “Active”. The values for the inhibition in series [1] and in [2] were 68.7% and 61.6%, respectively.

Take `CCOC(=O)c1cnc2ccc(OC)cc2c1N1CCN(c2ncccc2C#N)CC1`: the IC50 against Acetylcholinesterase came to 1100 nM; at Cholinesterase, 1900 nM. The compound also came in with an inhibition in series [2] of 39.8%.

As to `CCOC(=O)c1cnc2ccc(C)cc2c1N1CCN(c2ncccc2C#N)CC1`, the IC50 against Acetylcholinesterase came to 3490 nM; against Cholinesterase, 3000 nM. This compound gave an inhibition in series [2] of 27.3%.

As for `CCOC(=O)c1cnc2ccc(F)cc2c1N1CCN(c2ncccc2C#N)CC1`, the 50% inhibitory concentration (IC50) stood at 580 nM on Acetylcholinesterase and 1230 nM against Cholinesterase. Further, the inhibition in series [1] stood at 59%; in series [2], 54.9%.

As to `CCOC(=O)c1cnc2ccc(C)cc2c1N1CCN(c2cc(C)nc3ncnn23)CC1`, the IC50 on Acetylcholinesterase turned out to be 2640 nM; against Cholinesterase, 4090 nM. Besides, the figures for the inhibition in [1] and in series [2] were 54.3% and 52.5%, respectively.

Consider `CCOC(=O)c1cnc2cc(C(F)(F)F)ccc2c1N1CCN(c2cc(C)nc3ncnn23)CC1`, for which the IC50 on Acetylcholinesterase is 180 nM; at Cholinesterase it was 780 nM. The inhibition in [1] is 52%; in series [2], 43.8%.

Regarding `CCOC(=O)c1cnc2ccc(F)cc2c1N1CCN(c2cc(C)nc3ncnn23)CC1`, the result in the series with SH-SY5Y [3], with SH-SY5Y [10] and in the series with SH-SY5Y [11] was Active. Besides, the Activity in series [4] was 79 - 83%; in [6], “Non-Toxic”; in the series on SH-SY5Y [7] it was “Dose-dependent effect”. The results for the IC50 against Acetylcholinesterase and at Cholinesterase were 42 nM and 510 nM, respectively. Besides, the Ratio IC50 was determined as 106 in [5], 14 in series [9], 3.2 in [14] and 74 in series [12]. For the same compound, the inhibition result in series [8] and in series [13] was “Active” throughout. Also, the inhibition in series [1] is 80.5%; in series [2], 72.9%.
